# Results as given in US10723723B2, “Substituted bicycle heterocyclic derivatives useful as ROMK channel inhibitors” (BRISTOL-MYERS SQUIBB COMPANY, priority 2016, dated 2020).
# Assays:
# [1] = biological target: hERG channels (Homo sapiens (Human), UniProt Q12809); assay: hERG Manual Patch Clamp Assay (HEK 293 cells stably expressing hERG channels); format: cell-based; details: human, HEK 293 cells stably expressing hERG channels, pH 7.4
# Protocol: hERG electrophysiology assay: The experimental compounds were assessed for hERG activity on HEK 293 cells stably expressing hERG channels using patch clamp technique. Coverslips plated with hERG expressing cells were placed in the experimental chamber and were perfused with a solution composed of (in mM): 140 NaCl, 4 KCl, 1.8 CaCl2), 1 MgCl2, 10 Glucose, 10 HEPES (pH 7.4, NaOH) at room temperature. Borosilicate patch pipettes had tip resistances of 2-4 Mohms when filled with an internal solution containing: 130 KCl, 1 MgCl2, 1 CaCl2), 10 EGTA, 10 HEPES, 5 ATP-K2 (pH 7.2, KOH). The cells were clamped at −80 mV in whole cell configuration using an Axopatch 200B (Axon instruments, Union City, Calif.) patch clamp amplifier controlled by pClamp (Axon instruments) software. Upon formation of a gigaseal, the following voltage protocol was repeatedly (0.05 Hz) applied to record tail currents: depolarization step from −80 mV to +20 mV for 2 seconds followed by a hyperpolarization step to −65 mV (3 seconds) to elicit tail currents. Compounds were applied after stabilization of tail current. First, tail currents were recorded in presence of extracellular solution alone (control) and subsequently, in extracellular solution containing increasing compound concentrations. Each compound concentration was applied for 2-5 minutes. The percentage inhibition at each concentration was calculated as reduction in peak tail current with respect to the peak tail current recorded in the presence of control solution. Data analysis was performed in a custom made template. The percent inhibitions at different concentrations were plotted to obtain a concentration response curve, which was subsequently fitted with a four parameter equation to calculate hERG IC50 value.
# A lower hERG % Inhibition value indicates less inhibition of the hERG current
# [2] = biological target: hROMK (human Kir1.1) (Homo sapiens (Human), UniProt P48048); assay: Thallium Flux Assay (FluxOR, CHO T-Rex hROMK stable cell line); format: cell-based; details: CHO T-Rex hROMK cells, 10-point concentration response curve; read-out: Human ROMK TH Flux IC50
# Chain of hROMK (human Kir1.1) (P48048 whole entry): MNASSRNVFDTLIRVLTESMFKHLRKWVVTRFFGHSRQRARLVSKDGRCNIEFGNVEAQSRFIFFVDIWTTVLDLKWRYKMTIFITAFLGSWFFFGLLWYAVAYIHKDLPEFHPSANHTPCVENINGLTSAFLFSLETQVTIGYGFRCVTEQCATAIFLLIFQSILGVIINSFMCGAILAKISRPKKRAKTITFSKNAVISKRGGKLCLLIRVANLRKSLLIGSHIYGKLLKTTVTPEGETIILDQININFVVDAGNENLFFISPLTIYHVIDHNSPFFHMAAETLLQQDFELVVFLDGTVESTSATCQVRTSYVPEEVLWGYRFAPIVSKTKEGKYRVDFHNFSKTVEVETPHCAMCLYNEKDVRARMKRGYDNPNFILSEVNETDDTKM
# Chain of hERG channels (Q12809 whole entry): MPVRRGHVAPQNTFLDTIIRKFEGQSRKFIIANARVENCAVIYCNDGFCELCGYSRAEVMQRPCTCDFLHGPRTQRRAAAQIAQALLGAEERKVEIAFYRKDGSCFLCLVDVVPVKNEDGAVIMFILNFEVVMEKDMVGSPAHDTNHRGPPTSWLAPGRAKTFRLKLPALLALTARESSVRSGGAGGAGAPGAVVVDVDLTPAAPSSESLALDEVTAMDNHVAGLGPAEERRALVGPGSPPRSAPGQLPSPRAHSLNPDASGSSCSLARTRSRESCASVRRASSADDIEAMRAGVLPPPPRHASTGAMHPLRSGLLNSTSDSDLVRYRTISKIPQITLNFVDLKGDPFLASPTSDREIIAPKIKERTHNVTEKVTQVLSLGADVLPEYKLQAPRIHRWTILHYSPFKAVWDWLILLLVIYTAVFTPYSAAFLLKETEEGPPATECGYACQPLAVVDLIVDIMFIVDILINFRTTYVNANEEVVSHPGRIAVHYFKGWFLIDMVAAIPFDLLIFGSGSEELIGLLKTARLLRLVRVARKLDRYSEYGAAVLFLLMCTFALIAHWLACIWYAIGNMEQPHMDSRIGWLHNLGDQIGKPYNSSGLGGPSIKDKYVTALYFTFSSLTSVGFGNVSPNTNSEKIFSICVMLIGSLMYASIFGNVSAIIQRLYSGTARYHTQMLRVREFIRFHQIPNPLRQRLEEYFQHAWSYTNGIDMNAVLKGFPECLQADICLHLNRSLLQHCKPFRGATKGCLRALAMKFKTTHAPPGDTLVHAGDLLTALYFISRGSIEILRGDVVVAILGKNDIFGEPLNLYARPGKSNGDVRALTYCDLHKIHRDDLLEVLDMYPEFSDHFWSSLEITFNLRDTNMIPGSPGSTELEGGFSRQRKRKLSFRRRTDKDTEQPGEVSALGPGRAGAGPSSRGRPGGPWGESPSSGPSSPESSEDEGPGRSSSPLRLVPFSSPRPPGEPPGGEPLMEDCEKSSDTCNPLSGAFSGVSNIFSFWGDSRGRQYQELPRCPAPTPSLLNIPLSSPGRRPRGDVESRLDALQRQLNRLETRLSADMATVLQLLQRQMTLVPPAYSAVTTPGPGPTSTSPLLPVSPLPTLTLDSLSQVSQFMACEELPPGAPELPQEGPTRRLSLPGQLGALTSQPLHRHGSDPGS
smiles,measurement,setting,value
"Cc1cc(-n2cc(CNC[C@H](O)c3ccc4c(c3C)COC4=O)c(C)n2)ncc1C#N [Example 74, (R)-6-(4-(((2-hydroxy-2-(4-methyl-1-oxo-1,3-dihydroisobenzofuran-5-yl)ethyl)amino)methyl)-3-methyl-1H-pyrazol-1-yl)-4-methylnicotinonitrile]",inhibition at 1 µM,[1],32%
same,IC50,[2],59 nM
"COc1cc(-c2ccc(CNC[C@H](O)c3ccc4c(c3C)COC4=O)c(OC)n2)ncc1C#N [Example 82, (R)-5′-(((2-hydroxy-2-(4-methyl-1-oxo-1,3-dihydroisobenzofuran-5-yl)ethyl)amino)methyl)-4,6′-dimethoxy-[2,2′-bipyridine]-5-carbonitrile]",inhibition at 1 µM,[1],44%
same,IC50,[2],31 nM
"Cc1c(C(O)CNCc2ccc(-c3ccc(C#N)c(F)c3)cc2)ccc2c1COC2=O (stereo not shown) [Example 10-I, 3-fluoro-4′-(((2-hydroxy-2-(4-methyl-1-oxo-1,3-dihydroisobenzofuran-5-yl)ethyl)amino)methyl)-[1,1′-biphenyl]-4-carbonitrile]",inhibition at 1 µM,[1],92%
same,IC50,[2],53 nM
"Cc1cc(-n2cc(CNC[C@H](NCCO)c3ccc4c(c3C)COC4=O)cn2)ncc1C#N [Example 56, (R)-6-(4-(((2-((2-hydroxyethyl)amino)-2-(4-methyl-1-oxo-1,3-dihydroisobenzofuran-5-yl)ethyl)amino)methyl)-1H-pyrazol-1-yl)-4-methylnicotinonitrile]",inhibition at 1 µM,[1],3.7%
same,IC50,[2],80 nM
"CCOc1cc(-n2cc(CNC[C@H](O)c3ccc4c(c3C)COC4=O)cn2)ncc1C#N [Example 152, (R)-4-ethoxy-6-(4-(((2-hydroxy-2-(4-methyl-1-oxo-1,3-dihydroisobenzofuran-5-yl)ethyl)amino)methyl)-1H-pyrazol-1-yl)nicotinonitrile]",inhibition at 1 µM,[1],64%
same,IC50,[2],6.2 nM
"COc1cc(-n2cc(CNC[C@H](O)c3ccc4c(c3C)COC4=O)cn2)ncc1C#N [Example 173, (R)-6-(4-(((2-hydroxy-2-(4-methyl-1-oxo-1,3-dihydroisobenzofuran-5-yl)ethyl)amino)methyl)-1H-pyrazol-1-yl)-4-methoxynicotinonitrile]",inhibition at 1 µM,[1],77%
same,IC50,[2],2.4 nM
"Cc1c(C(O)CN(C)Cc2ccc(-n3ccc4c(C#N)cccc43)cc2)ccc2c1COC2=O (single isomer, unassigned) [Example 28-I, 1-(4-(((2-hydroxy-2-(4-methyl-1-oxo-1,3-dihydroisobenzofuran-5-yl)ethyl)(methyl)amino)methyl)phenyl)-1H-indole-4-carbonitrile]",inhibition at 1 µM,[1],94%
same,IC50,[2],180 nM
"Cc1c(-c2cnn(CCNC[C@H](O)c3ccc4c(c3C)COC4=O)c2)ccc2c1COC2=O [Example 43, (R)-5-(l-hydroxy-2-((2-(4-(4-methyl-1-oxo-1,3-dihydroisobenzofuran-5-yl)-1H-pyrazol-1-yl)ethyl)amino)ethyl)-4-methylisobenzofuran-1(3H)-one]",inhibition at 1 µM,[1],7.1%
same,IC50,[2],66 nM
"Cc1cc(-n2cc(CNC[C@H](O)c3ccc4c(c3C)COC4=O)cn2)nc(C)c1C#N [Example 71, (R)-6-(4-(((2-hydroxy-2-(4-methyl-1-oxo-1,3-dihydroisobenzofuran-5-yl)ethyl)amino)methyl)-1H-pyrazol-1-yl)-2,4-dimethylnicotinonitrile]",inhibition at 1 µM,[1],39%
same,IC50,[2],22 nM
"Cc1c([C@@H](O)CNCc2cn(-c3ccc4oc(=O)n(C)c4c3)nc2C(F)(F)F)ccc2c1COC2=O [Example 95, (R)-5-(4-(((2-hydroxy-2-(4-methyl-1-oxo-1,3-dihydroisobenzofuran-5-yl)ethyl)amino)methyl)-3-(trifluoromethyl)-1H-pyrazol-1-yl)-3-methylbenzo[d]oxazol-2(3H)-one]",inhibition at 1 µM,[1],11%
same,IC50,[2],56 nM
"Cc1cc(-n2cc(CNC[C@H](O)c3ccc4c(c3C)COC4=O)c(C(F)F)n2)ncc1C#N [Example 93, (R)-6-(3-(difluoromethyl)-4-(((2-hydroxy-2-(4-methyl-1-oxo-1,3-dihydroisobenzofuran-5-yl)ethyl)amino)methyl)-1H-pyrazol-1-yl)-4-methylnicotinonitrile]",inhibition at 1 µM,[1],29%
same,IC50,[2],15 nM
